Test results: patent publication US10308652B2, “Tricyclic heterocyclic compounds useful as inhibitors of TNF” (BRISTOL-MYERS SQUIBB COMPANY, priority 2015, dated 2019)

molecular target: TNFα (Homo sapiens (Human), UniProt P01375); experiment: TNF induced HEK-Blue assay; type: cell-based; details: TNFα 0.5 ng/ml; HEK-Blue-CD40L cells, NF-κB-driven secreted alkaline phosphatase reporter; 18 h
Procedure: TNF or CD40L-induced HEK-Blue Assay Test compounds serially diluted in DMSO were plated in an assay plate (Labcyte, Cat. #LP-0200) at final concentrations ranging from 0.004 μM to 25μM. TNFα (final concentration 0.5 ng/ml) or CD4OL (final concentration 30 ng/ml) in assay buffer [DMEM, 4.5 g/l glucose (Gibco, Cat. 21063-029), 10% FBS (Sigma, F4135), 1% Penicillin-Streptomycin (Gibco, Cat. 15140-122), 1% Anti-Anti (Gibco, Cat. 15240-112) and 2 mM L-glutamine (Gibco, Cat. 25030-081)] was then added to the assay plate. After a 30 minute pre-incubation at 37° C. and 5% CO2, HEK-Blue-CD40L cells (InvivoGen, Cat. Code hkb-cd40) containing a NF-κB-driven secreted alkaline phosphatase reporter gene were seeded into the assay plate at a density of 20,000 cells per well. This plate was then incubated for 18 h at 37° C. and 5% CO2. Secreted alkaline phosphatase expression was measured using QUANTI-Blue (InvivoGen, Cat. Code rep-qb1) according to manufacturer's specifications and the assay plate was read on a PerkinElmer Envision at 620 nm. Inhibition data for the test compound over a range of concentrations was plotted as percentage inhibition of the test compound (100%=maximum inhibition). IC50 values were determined after correcting for background [(sample read−mean of low control)/(mean of high control−mean of low control)] where by the low control is DMSO without stimulation and high control is DMSO with stimulation. The IC50 is defined as the concentration of test compound which produces 50% inhibition and was quantified using the 4 parameter logistic equation to fit the data.

Chain of TNFα (P01375 77-233): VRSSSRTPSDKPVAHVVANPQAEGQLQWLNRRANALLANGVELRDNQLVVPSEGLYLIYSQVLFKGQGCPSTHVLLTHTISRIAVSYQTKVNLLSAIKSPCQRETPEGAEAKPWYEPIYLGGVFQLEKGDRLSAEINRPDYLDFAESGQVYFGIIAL

Row | IC50 [µM] | SMILES
1 | 1 to 10 | CS(=O)(=O)c1ccc(-c2ccc3nc4c(n3n2)[C@@H](c2ccccc2OC(F)F)NC[C@H]4O)cc1 (racemic) [Example 41, (+/−)-cis-9-(2-(difluoromethoxy)phenyl)-2-(4-(methylsulfonyl)phenyl)-6,7,8,9-tetrahydropyrido[4′,3′:4,5]imidazo[1,2-b]pyridazin-6-ol]
2 | < 1 | CC(C)(C)COc1ccc(-c2ccc3nc4c(n3n2)[C@@H](c2ccccc2OC(F)F)NC[C@H]4O)cc1 (racemic) [Example 42, (+/−)-cis-9-(2-(difluoromethoxy)phenyl)-2-(4-(neopentyloxy)phenyl)-6,7,8,9-tetrahydropyrido[4′,3′:4,5]imidazo[1,2-b]pyridazin-6-ol]
3 | 1 to 10 | NS(=O)(=O)c1ccc(-c2ccc3nc4c(n3n2)[C@@H](c2ccccc2OC(F)F)NC[C@H]4O)cc1 (racemic) [Example 46, (+/−)-cis-4-(9-(2-(difluoromethoxy)phenyl)-6-hydroxy-6,7,8,9-tetrahydropyrido[4′,3′:4,5]imidazo[1,2-b]pyridazin-2-yl)benzenesulfonamide]
4 | 1 to 10 | O=C(c1ccc(-c2ccc3nc4c(n3n2)[C@@H](c2ccccc2OC(F)F)NC[C@H]4O)cc1Cl)N1CCOCC1 (racemic) [Example 47, (+/−)-cis-(2-chloro-4-(9-(2-(difluoromethoxy)phenyl)-6-hydroxy-6,7,8,9-tetrahydropyrido[4′,3′:4,5]imidazo[1,2-b]pyridazin-2-yl)phenyl)(morpholino)methanone]
5 | 10 to 25 | NC(=O)c1ccc(-c2ccc3nc4c(n3n2)[C@@H](c2ccccc2OC(F)F)NC[C@H]4O)cc1Cl (racemic) [Example 48, (+/−)-cis-2-chloro-4-(9-(2-(difluoromethoxy)phenyl)-6-hydroxy-6,7,8,9-tetrahydropyrido[4′,3′:4,5]imidazo[1,2-b]pyridazin-2-yl)benzamide]
6 | 10 to 25 | COc1ccc(-c2ccc3nc4c(n3n2)[C@H](c2ccccc2OC(F)F)NC[C@H]4O)cn1 (racemic) [Example 51, (+/−)-trans-9-(2-(difluoromethoxy)phenyl)-2-(6-methoxypyridin-3-yl)-6,7,8,9-tetrahydropyrido[4′,3′:4,5]imidazo[1,2-b]pyridazin-6-ol]
7 | 1 to 10 | CC(C)(O)c1ccc(-c2ccc3nc4c(n3n2)[C@@H](c2cc(Cl)ccc2OC(F)F)NC[C@H]4O)cc1 (racemic) [Example 54, (+/−)-cis-9-(5-chloro-2-(difluoromethoxy)phenyl)-2-(4-(2-hydroxypropan-2-yl)phenyl)-6,7,8,9-tetrahydropyrido[4′,3′:4,5]imidazo[1,2-b]pyridazin-6-ol]
8 | 1 to 10 | CC(C)(O)c1ccc(-c2ccc3nc4c(n3n2)[C@H](c2cc(Cl)ccc2C(F)(F)F)NC[C@H]4O)cc1 (racemic) [Example 55, (+/−)-trans-9-(5-chloro-2-(trifluoromethyl)phenyl)-2-(4-(2-hydroxypropan-2-yl)phenyl)-6,7,8,9-tetrahydropyrido [4′,3′:4,5]imidazo[1,2-b]pyridazin-6-ol]
9 | 1 to 10 | COc1ccc(Cl)cc1[C@@H]1NC[C@@H](O)c2nc3ccc(-c4ccc(C(C)(C)O)cc4)nn3c21 (racemic) [Example 56, (+/−)-trans-9-(5-chloro-2-methoxyphenyl)-2-(4-(2-hydroxypropan-2-yl)phenyl)-6,7,8,9-tetrahydropyrido[4′,3′:4,5]imidazo[1,2-b]pyridazin-6-ol]
10 | 1 to 10 | CC(C)(O)c1ccc(-c2ccc3nc4c(n3n2)[C@H](c2ccccc2OC(F)F)OC[C@H]4O)cc1 (racemic) [Example 57, Rac-(6S,9S)-9-(2-(difluoromethoxy)phenyl)-2-(4-(2-hydroxypropan-2-yl)phenyl)-7,9-dihydro-6H-pyrano[4′,3′:4,5]imidazo[1,2-b]pyridazin-6-ol]
11 | < 1 | CC(C)(O)c1ccc(-c2ccc3nc4c(n3n2)[C@H](c2ccccc2OC(F)F)OC[C@@H]4O)cc1 (relative stereo) [Example 58, Cis-9-(2-(difluoromethoxy)phenyl)-2-(4-(2-hydroxypropan-2-yl)phenyl)-6,9-dihydro-7H-pyrano[4′,3′:4,5]imidazo[1,2-b]pyridazin-6-ol]
12 | 10 to 25 | CC(C)(O)c1ncc(-c2ccc3nc4c(n3n2)[C@H](c2ccccc2OC(F)F)OC[C@@H]4O)cn1 (relative stereo) [Example 61, Cis-9-(2-(difluoromethoxy)phenyl)-2-(2-(2-hydroxypropan-2-yl)pyrimidin-5-yl)-6,9-dihydro-7H-pyrano[4′,3′:4,5]imidazo[1,2-b]pyridazin-6-ol]
13 | 1 to 10 | CC(C)(O)c1ccc(-c2ccc3nc4c(n3n2)[C@H](c2ccccc2OC(F)F)NC[C@H]4O)cc1 [Example 5, (+/−)-Cis and trans-9-(2-(difluoromethoxy)phenyl)-2-(4-(2-hydroxypropan-2-yl)phenyl)-6,7,8,9-tetrahydropyrido[4′,3′:4,5]imidazo[1,2-b]pyridazin-6-ol]
14 | 1 to 10 | CC(C)(O)c1ccc(-c2ccc3nc4c(n3n2)[C@H](c2ccccc2OC(F)F)NC[C@@H]4O)cc1 [Example 7, Cis-(6S,9S)-9-(2-(difluoromethoxy)phenyl)-2-(4-(2-hydroxypropan-2-yl)phenyl)-6,7,8,9-tetrahydropyrido[4′,3′:4,5]imidazo[1,2-b]pyridazin-6-ol]
15 | < 1 | CC(C)(O)c1ccc(-c2ccc3nc4c(n3n2)C(c2ccccc2OC(F)F)NCC4F)cc1 [Example 12, cis-(1S,4S)-2-(4-(9-(2-(difluoromethoxy)phenyl)-6-fluoro-6,7,8,9-tetrahydropyrido[4′,3′:4,5]imidazo[1,2-b]pyridazin-2-yl)phenyl) propan-2-ol]
16 | < 1 | CC(C)(O)c1ccc(-c2ccc3nc4c(n3n2)[C@@H](c2ccccc2OC(F)F)NC[C@H]4F)cc1 [Example 13, cis-(1R,4R)-2-(4-(9-(2-(difluoromethoxy)phenyl)-6-fluoro-6,7,8,9-tetrahydropyrido[4′,3′:4,5]imidazo[1,2-b]pyridazin-2-yl)phenyl)propan-2-ol]
17 | 1 to 10 | CC(C)(O)c1ccc(-c2ccc3nc4c(n3n2)[C@H](c2ccccc2OC(F)F)NC[C@H]4O)cc1 [Example 14, trans-(6R,9S)-9-(2-(difluoromethoxy)phenyl)-2-(4-(2-hydroxypropan-2-yl)phenyl)-6,7,8,9-tetrahydropyrido[4′,3′:4,5]imidazo[1,2-b]pyridazin-6-ol]
18 | 1 to 10 | CC(C)(O)c1ccc(-c2ccc3nc4c(n3n2)[C@@H](c2ccccc2OC(F)F)NC[C@@H]4O)cc1 [Example 15, trans-(6S,9R)-9-(2-(difluoromethoxy)phenyl)-2-(4-(2-hydroxypropan-2-yl)phenyl)-6,7,8,9-tetrahydropyrido [4′,3′:4,5]imidazo[1,2-b]pyridazin-6-ol]
19 | 1 to 10 | COc1ccc(-c2ccc3nc4c(n3n2)C(c2ccccc2OC(F)F)NCC4O)cn1 [Example 16, cis-(6R,9S)-9-(2-(difluoromethoxy)phenyl)-2-(6-methoxypyridin-3-yl)-6,7,8,9-tetrahydropyrido[4′,3′:4,5]imidazo[1,2-b]pyridazin-6-ol]
20 | 1 to 10 | CC(C)(O)c1ncc(-c2ccc3nc4c(n3n2)C(c2ccccc2OC(F)F)NCC4O)cn1 (stereo not shown) [Example 17, 9-(2-(difluoromethoxy)phenyl)-2-(2-(2-hydroxypropan-2-yl)pyrimidin-5-yl)-6,7,8,9-tetrahydropyrido[4′,3′:4,5]imidazo[1,2-b]pyridazin-6-ol]
21 | 10 to 25 | COC1CN(C(=O)c2ccc(-c3ccc4nc5c(n4n3)C(c3ccccc3OC(F)F)NCC5O)cc2)C1 (stereo not shown) [Example 18, (4-(9-(2-(difluoromethoxy)phenyl)-6-hydroxy-6,7,8,9-tetrahydropyrido[4′,3′:4,5]imidazo[1,2-b]pyridazin-2-yl)phenyl)(3-methoxyazetidin-1-yl)methanone]
22 | 1 to 10 | O=C(c1ccc(-c2ccc3nc4c(n3n2)C(c2ccccc2OC(F)F)NCC4O)cc1)N1CCOCC1 (stereo not shown) [Example 19, (4-(9-(2-(difluoromethoxy)phenyl)-6-hydroxy-6,7,8,9-tetrahydropyrido[4′,3′:4,5]imidazo[1,2-b]pyridazin-2-yl)phenyl)(morpholino)methanone]
23 | 10 to 25 | O=C(NC1CC1)c1ccc(-c2ccc3nc4c(n3n2)C(c2ccccc2OC(F)F)NCC4O)cc1 (stereo not shown) [Example 20, N-cyclopropyl-4-(9-(2-(difluoromethoxy)phenyl)-6-hydroxy-6,7,8,9-tetrahydropyrido[4′,3′:4,5]imidazo[1,2-b]pyridazin-2-yl)benzamide]
24 | 1 to 10 | O=C(NC1CC1)c1ccc(-c2ccc3nc4c(n3n2)C(c2ccccc2OC(F)F)NCC4O)cn1 (stereo not shown) [Example 21, N-cyclopropyl-5-(9-(2-(difluoromethoxy)phenyl)-6-hydroxy-6,7,8,9-tetrahydropyrido[4′,3′:4,5]imidazo[1,2-b]pyridazin-2-yl)picolinamide]
25 | 1 to 10 | O=C(O)CN1CCN(c2ncc(-c3ccc4nc5c(n4n3)C(c3ccccc3OC(F)F)NCC5O)cn2)CC1 (stereo not shown) [Example 22, 2-(4-(5-(9-(2-(difluoromethoxy)phenyl)-6-hydroxy-6,7,8,9-tetrahydropyrido [4′,3′:4,5]imidazo[1,2-b]pyridazin-2-yl)pyrimidin-2-yl)piperazin-1-yl)acetic acid]
